Consider two compounds from patent US9005575B2, “Arg-Gly-Asp-conjugated alpha-melanocyte stimulating hormone hybrid peptide for use in diagnosing and treating melanoma, including metastatic melanoma and methods related to same” (STC.UNM, priority 2009, dated 2015).

The term tissue uptake denotes the share of the injected amount in each gram of the tissue.

A short description of series [1]: Effect of L-lysine co-injection on renal and tumor uptakes. It counts as in vivo, C57 mice. To be noted: 15 mg of L-lysine, 2 h post-injection; for tissue uptake at 2 h: C57, mouse, kidneys, with L-lysine, 15 mg co-injected, total radioactivity. On the procedure:
The effects of L-lysine co-injection on the renal uptakes of ^99mTc-RGD-Arg-(Arg^11)CCMSH and ^99mTc-RGD-Lys-(Arg^11)CCMSH was examined in B16/F1 melanoma-bearing C57 as well. Two groups of 5 mice were injected with an aqueous mixture of 0.037 MBq of ^99mTc-RGD-Arg-(Arg^11)CCMSH and 15 mg of L-lysine or an aqueous mixture of 0.037 MBq of ^99mTc-RGD-Lys-(Arg^11)CCMSH and 15 mg of L-lysine, respectively. The mice were sacrificed at 2 h post-injection, and tumors and kidneys were harvested, weighed and counted.

The nature of series [2]: Stability in mouse serum monitored by RP-HPLC. It counts as in vitro ADME. To be noted: 37° C., 24 h. On the procedure: RGD-Lys-(Arg^11)CCMSH was radiolabeled with ^99mTc via a glucoheptonate transchelation reaction using methods described previously (7). Briefly, 100 μl of 2 mg/ml SnCl2 in 0.2 M glucoheptonate aqueous solution and 200 μl of fresh ^99mTcO4^− solution (1-4 mCi) were added into a reaction vial and incubated at room temperature (25° C.) for […] to form ^99mTc-glucoheptonate. Then, 10 μl of 1 mg/ml RGD-Lys-(Arg^11)CCMSH aqueous solution was added into the reaction vial and the pH of the reaction mixture was adjusted to 8.5 with 0.1 M NaOH. The reaction mixture was incubated at 75° C. for 40 min. […] The stability of ^99mTc-RGD-Lys-(Arg^11)CCMSH was determined by incubation in mouse serum at 37° C. according to the published procedure (27) for various time periods, and monitored for degradation by RP-HPLC.
RGD-Arg-(Arg^11)CCMSH was radiolabeled with ^99mTc via a glucoheptonate transchelation reaction using methods described previously (17). […] The stability of ^99m Tc-RGD-Arg-(Arg^11)CCMSH was determined by incubation in mouse serum at 37° C. according to the published procedure (17) for various time periods, and monitored for degradation by RP-HPLC.

For series [3], the system named is B16/F1 murine melanoma cells. Description: Specificity of cellular uptake (peptide blockade). To be noted: rather than αvβ3 integrin-mediated. It counts as cell-based. On the procedure: The specificity of cell binding was determined by incubating ^99mTc-RGD-Lys-(Arg^11)CCMSH with or without non-radioactive peptides. After being washed once with binding media, B16/F1 cells in 24-well cell culture plates were incubated with approximately 200,000 cpm of HPLC purified ^99mTc-RGD-Lys-(Arg^11)CCMSH at 25° C. for 120 min (n=4) in the presence of 0.1 μM of RGD-Lys-(Arg^11)CCMSH, NDP-MSH, (Arg^11)CCMSH or RGD in 0.5 ml of binding media, respectively. The reaction media were aspirated after the incubation. The cells were rinsed twice with 0.5 ml of ice-cold pH 7.4, 0.2% BSA/0.01 M PBS and lysed in 0.5 ml of 1 N NaOH for 5 min. The activities associated with cells were measured in a gamma counter. Statistical analysis was performed using the Student's t-test for unpaired data.
The specificity of cellular uptake was determined by incubating ^99mTc-RGD-Arg-(Arg^11)CCMSH with or without non-radioactive peptides. After being washed once with binding medium, B16/F1 cells in 24-well cell culture plates were incubated with approximately 200,000 cpm of HPLC purified ^99mTc-RGD-Arg-(Arg^11)CCMSH at 25° C. for 120 min (n=3) in the presence of 0.1 μM of RGD-Arg-(Arg^11)CCMSH, (Arg^11)CCMSH, RGD or no peptide blockade in 0.5 mL of binding medium, respectively. The reaction medium was aspirated after the incubation. The cells were rinsed twice with 0.5 mL of ice-cold pH 7.4, 0.2% BSA/0.01 M PBS and lysed in 0.5 mL of 1 N NaOH for 5 min. The activities associated with cells were measured in a gamma counter.

Positions of bridges follow the written chain, without caps; N, C: chain ends. Non-standard residues stand in square brackets, D forms with d. Residues, ends and D or L forms follow the SMILES beside them.

Turning to `CC(C)[C@H](NC(=O)[C@@H]1CCCN1C(=O)[C@H](CCCNC(=N)N)NC(=O)[C@H](CS)NC(=O)[C@H](Cc1c[nH]c2ccccc12)NC(=O)[C@H](CCCNC(=N)N)NC(=O)[C@@H](Cc1ccccc1)NC(=O)[C@H](Cc1c[nH]cn1)NC(=O)[C@H](CCC(=O)O)NC(=O)[C@H](CS)NC(=O)[C@H](CS)NC(=O)[C@H](CCCCN)NC(=O)[C@@H]1CC(=O)N[C@@H](CCCNC(=N)N)C(=O)NCC(=O)N[C@@H](CC(=O)O)C(=O)N[C@H](Cc2ccc(O)cc2)C(=O)N1)C(N)=O` [^99mTc-RGD-Lys-(Arg^11)CCMSH, metal not drawn] (RGD[dY]DKCCEH[dF]RWCRPV-NH2; lactam N-5), in series [1], the “Effect of L-lysine co-injection on the tumor uptake” value was “without affecting”, the “Reduction of renal uptake by L-lysine co-injection” value worked out at 52.1% and the tissue uptake at 2 h stood at 32.2 ± 5.98 %ID/g. Also, the “Stability in mouse serum” value in series [2] is listed as “stable”. In addition, in series [3], the “Mechanism of cellular uptake” value was “MC1 receptor-mediated”.
The like results for `CC(C)[C@H](NC(=O)[C@@H]1CCCN1C(=O)[C@H](CCCNC(=N)N)NC(=O)[C@H](CS)NC(=O)[C@H](Cc1c[nH]c2ccccc12)NC(=O)[C@H](CCCNC(=N)N)NC(=O)[C@@H](Cc1ccccc1)NC(=O)[C@H](Cc1c[nH]cn1)NC(=O)[C@H](CCC(=O)O)NC(=O)[C@H](CS)NC(=O)[C@H](CS)NC(=O)[C@H](CCCNC(=N)N)NC(=O)[C@@H]1CC(=O)N[C@@H](CCCNC(=N)N)C(=O)NCC(=O)N[C@@H](CC(=O)O)C(=O)N[C@H](Cc2ccc(O)cc2)C(=O)N1)C(N)=O` [^99mTc-RGD-Arg-(Arg^11)CCMSH, metal not drawn] (RGD[dY]DRCCEH[dF]RWCRPV-NH2; lactam N-5) were, in that order, “without affecting”, 27.7%, 31.1 ± 6.42 %ID/g, “stable” and “MC1 receptor-mediated”.
